The text below walks through data of patent US20020071842A1, “Soluble CD1 compositions and uses thereof” (priority 2000, published 2002).

What all share (assay): Plate-bound mCD1d fusion protein hybridoma stimulation assay (IL-2 ELISA)
What all share (assay type): cell-based, mouse
Background: In an ELISA, binding on a coated surface is turned into a signal by an enzyme label.

One assay concerns 24.8.A hybridoma. Particulars: for IL-2 secretion: 24.8 A NKT hybridoma, plate-bound mCD1d-IgGFc2a fusion protein preincubated with lipid antigen. The source says:
(§1) The CD1d-restricted T cell clones 24.7, 24.8, 24.9 (NKT cell) and 14S.6, 14S.7, 14S.10, and 14S.15 (diverse TCRs) were all derived from spleen of wild type C57BL/6 mice, as described previously (Behar, S. M. et al., J. Immunol., 162:161-7 (1999)). To generate T cell hybridomas, the activated T cells were fused to the aminopterin-sensitive BW5147 αβTCR^− thymoma cell line using PEG1500, and hybrids were selected in HAT medium (Life Technologies, Gaithersburg, Md.). Resulting TT hybridomas were tested for recognition of RMA-S cells transfected with mCD1D1 compared to untransfected RMA-S cells, as described below. […] The hybridomas are distinguished from the original T cell clones by the addition of a letter to their names. The KT/7, KT/12, KT/22, and KT/23 and Vβ/9 NKT cell hybridomas were derived from NK1.1^+ T cells enriched from spleen of C57BL/6 mice by depletion of CD8+ T cells, naive T cells, and B cells by mAbs (anti-B220, CD8, and CD62L, or anti-CD8α, CD8β, and Me114) bound to magnetic microbeads, or to plastic. The purified cells were stimulated either by the anti-CD3 KT3 mAb (KT/7, KT/12, KT/22, KT/23), or by an anti-Vβ8.2 mAb (Vβ/9), and addition of IL-2 or IL-2 and IL-7. After 4-5 days of culture the cells were fused with BW5147 thymoma cells. The VII68, VIII24, XVI9, and XV104 diverse TCR hybridomas were generated from CD4^+ T cells from class 110 mice, as described previously (Cardell, S. et al., J. Exp. Med., 182:993-1004 (1995)). The DN32D3 hybridoma was derived as described (Lantz, O., and Bendelac, A., J. Exp. Med., 180:1097-106 (1994).
(§2) To test for recognition of the mCD1d fusion protein and purified or synthetic antigens, 96 well protein A coated plates (Pierce Chemical Company) were incubated with 400-600 ng/well of the fusion protein or a negative control IgG2a antibody, RPC5.4 or UPC10, in PBS, at pH 7.2. Lipid antigens were diluted into PBS and added where specified at the indicated molar ratio of antigen to fusion protein, (when not specified the ratio was 40:1). Protein A plates containing the fusion protein and antigen were incubated 24-48 hr at 37° C., then washed three times with 200 μl/well sterile PBS, pH 7.2, and two times with 200 μl/well sterile culture medium (containing RPMI supplemented with L-glutamine and penicillin/streptomycin, Life Technologies, Gaithersburg, Md., and 10% bovine calf serum, Hyclone Laboratories, Logan, Utah). For assays in which the PI was phospholipase treated, it was first diluted into 0.01M Tris, 0.15M NaCl, pH 7.5, containing 0.25 U PI-specific phospholipase C or 0.5 U phospholipase D (Sigma, St Louis, Mo.), and incubated 30 minutes at room temperature, then added to the protein A plates as described above. For assays in which the pH was varied during antigen incubation with the fusion protein, the fusion protein and α-GalCer were diluted into a 20 mM citrate/phosphate buffer of the specified pH, which contained 0.15 M NaCl, and after incubation, the samples were neutralized by addition of 1M Tris, pH 7.5. Hybridoma cells were added to fusion protein/antigen treated plates at a concentration of 1×10^5 cells/well, in a total volume of 150 μl/well. Assays were performed using 2-6 replicate wells. In some assays, an anti-mCD1d blocking antibody (19G11) was included at a final concentration of 20 μg/ml. The plates were incubated at 37° C. for 16-20 hr, and culture supernatants were withdrawn for analysis. Each experiment was performed at least three times.
IL-2 secreted in the hybridoma stimulation assays was quantitated in a double antibody sandwich ELISA, by comparison to a standard curve of purified murine IL-2 (Pharmingen, San Diego, Calif.). Hybridoma plate stimulation supernatants (used either neat or diluted) and serially diluted IL-2 standards were added to 96 well ELISA plates coated with a rat anti-mouse IL-2 capture antibody (Pharmingen).

The test system of the next assay is 14S.15.A hybridoma. The note with it: 14S.15.A diverse TCR hybridoma; plate-bound mCD1d-IgGFc2a fusion protein preincubated with lipid antigen.
Source text: as §1, §2
(§3) IL-2 secreted in the hybridoma stimulation assays was quantitated in a double antibody sandwich ELISA, by comparison to a standard curve of purified murine IL-2 (Pharmingen, San Diego, Calif.). Hybridoma plate stimulation supernatants (used either neat or diluted) and serially diluted IL-2 standards were added to 96 well ELISA plates coated with a rat anti-mouse IL-2 capture antibody (Pharmingen). […]

The next assay concerns 14S.6.A hybridoma. Particulars: 14S.6.A diverse TCR hybridoma; plate-bound mCD1d-IgGFc2a fusion protein preincubated with lipid antigen.
Source text: as §1, §2, §3

The next assay deals with 14S.7.N hybridoma. The note with it: 14S.7.N diverse TCR hybridoma; plate-bound mCD1d-IgGFc2a fusion protein preincubated with lipid antigen.
Source text: as §1, §2, §3

The test system of a further assay is 24.7.C hybridoma. The note with it: 24 7.C NKT hybridoma; plate-bound mCD1d-IgGFc2a fusion protein preincubated with lipid antigen.
Source text: as §1, §2, §3

A further assay concerns 24.9.E hybridoma. The note with it: 24.9 E NKT hybridoma; plate-bound mCD1d-IgGFc2a fusion protein preincubated with lipid antigen.
Source text: as §1, §2, §3

Another assay deals with DN32D3 hybridoma. Particulars: DN32D3 NKT hybridoma; plate-bound mCD1d-IgGFc2a fusion protein preincubated with lipid antigen.
Source text: as §1, §2, §3

The next assay has as its system KT/12 hybridoma. Particulars: KT/12 NKT hybridoma; plate-bound mCD1d-IgGFc2a fusion protein preincubated with lipid antigen.
Source text: as §1, §2, §3

Another assay has as its system KT/22 hybridoma. The note with it: KT/22 NKT hybridoma; plate-bound mCD1d-IgGFc2a fusion protein preincubated with lipid antigen.
Source text: as §1, §2, §3

The test system of another assay is KT/23 hybridoma. The note with it: KT/23 NKT hybridoma; plate-bound mCD1d-IgGFc2a fusion protein preincubated with lipid antigen.
Source text: as §1, §2, §3

Another assay has as its system KT/7 hybridoma. Particulars: KT/7 NKT hybridoma; plate-bound mCD1d-IgGFc2a fusion protein preincubated with lipid antigen.
Source text: as §1, §2, §3

For another assay, the system named is VII68 hybridoma. The note with it: VII68 diverse TCR hybridoma; plate-bound mCD1d-IgGFc2a fusion protein preincubated with lipid antigen.
Source text: as §1, §2, §3

In a further assay the test system is VIII24 hybridoma. Particulars: VIII24 diverse TCR hybridoma; plate-bound mCD1d-IgGFc2a fusion protein preincubated with lipid antigen.
Source text: as §1, §2, §3

The test system of the next assay is Vβ/9 hybridoma. The note with it: Vβ/9 NKT hybridoma; plate-bound mCD1d-IgGFc2a fusion protein preincubated with lipid antigen.
Source text: as §1, §2, §3

A further assay relates to XV104 hybridoma. Particulars: XV104 diverse TCR hybridoma; plate-bound mCD1d-IgGFc2a fusion protein preincubated with lipid antigen.
Source text: as §1, §2, §3

Another assay has as its system XV19 hybridoma. Particulars: XV19 diverse TCR hybridoma; plate-bound mCD1d-IgGFc2a fusion protein preincubated with lipid antigen.
Source text: as §1, §2, §3

monogalactosyl diglyceride [MGDG]: the IL-2 secretion entry in the assay with 24.8.A hybridoma is reported as “+ (“+” indicates 50-250 pg/ml)”; in the assay with 14S.15.A hybridoma, 0 (A “0” indicates a mean of less than 50 pg/ml IL-2 was secreted); in the assay with 14S.6.A hybridoma, 0 (A “0” indicates a mean of less than 50 pg/ml IL-2 was secreted); in the assay with 14S.7.N hybridoma, 0 (A “0” indicates a mean of less than 50 pg/ml IL-2 was secreted); with 24.7.C hybridoma, 0 (A “0” indicates a mean of less than 50 pg/ml IL-2 was secreted); in the assay on 24.9.E hybridoma, 0 (A “0” indicates a mean of less than 50 pg/ml IL-2 was secreted). Besides, the IL-2 secretion in the assay on DN32D3 hybridoma, in the assay on KT/12 hybridoma, in the assay on KT/22 hybridoma, with KT/23 hybridoma, in the assay with KT/7 hybridoma and in the assay with VII68 hybridoma was 0 (A “0” indicates a mean of less than 50 pg/ml IL-2 was secreted) throughout. For the same compound, the IL-2 secretion with VIII24 hybridoma, in the assay on Vβ/9 hybridoma, in the assay on XV104 hybridoma and with XV19 hybridoma was 0 (A “0” indicates a mean of less than 50 pg/ml IL-2 was secreted) each time.

With `CCCCCCCCCCCCCCCC(=O)OCC(COP(=O)(O)O)OC(=O)CCCCCCCCCCCCCCC` (stereo not drawn) [PA, phosphatidic acid], the “IL-2 response to mCD1d fusion protein pre-treated with purified or synthetic lipid” value in the assay on 24.8.A hybridoma (24.8.A hybridoma, compared to untreated or buffer treated fusion protein) is listed as “little or no stimulation”. The IL-2 secretion result in the assay with 24.8.A hybridoma is given as “+ (“+” indicates 50-250 pg/ml)”; in the assay with 14S.15.A hybridoma, 0 (A “0” indicates a mean of less than 50 pg/ml IL-2 was secreted); in the assay on 14S.6.A hybridoma, 0 (A “0” indicates a mean of less than 50 pg/ml IL-2 was secreted); in the assay on 14S.7.N hybridoma it was 0 (A “0” indicates a mean of less than 50 pg/ml IL-2 was secreted); in the assay on 24.7.C hybridoma, 0 (A “0” indicates a mean of less than 50 pg/ml IL-2 was secreted); in the assay with 24.9.E hybridoma, 0 (A “0” indicates a mean of less than 50 pg/ml IL-2 was secreted). Moreover, the IL-2 secretion in the assay on DN32D3 hybridoma, with KT/12 hybridoma, in the assay on KT/22 hybridoma, in the assay on KT/23 hybridoma, in the assay on KT/7 hybridoma and with VII68 hybridoma was 0 (A “0” indicates a mean of less than 50 pg/ml IL-2 was secreted) throughout. In addition, the IL-2 secretion in the assay with VIII24 hybridoma, in the assay on Vβ/9 hybridoma, with XV104 hybridoma and in the assay with XV19 hybridoma was 0 (A “0” indicates a mean of less than 50 pg/ml IL-2 was secreted) throughout.
